Measurements published in ChEMBL document CHEMBL1201862, “PubChem BioAssay data set” (2004).
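Values below derive from 48-hour exposures of cells grown in 96-well plates, with endpoints linearly interpolated between the two concentrations bracketing the appropriate inhibition level. At the GI50, growth is halved.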 The source made the active and inactive calls. Rule as the data show it: active = GI50 up to about 1.1 µM and inactive = higher.

Tests used:
Assay in all cases: DTP human tumour cell line panel, 48 h
786-0 = tested on: 786-0
A549 = tested on: A549
CCRF-CEM = tested on: CCRF-CEM
DMS-114 = tested on: DMS-114
DMS-273 = tested on: DMS-273
HCC 2998 = tested on: HCC 2998
HCT-116 = tested on: HCT-116
HCT-15 = tested on: HCT-15
HL-60 = tested on: HL-60
HOP-18 = tested on: HOP-18
K562 = tested on: K562
LXFL 529 = tested on: LXFL 529
M14 = tested on: M14
M19-MEL = tested on: M19-MEL
MOLT-4 = tested on: MOLT-4
Malme-3M = tested on: Malme-3M
NCI-H460 = tested on: NCI-H460
NCI-H522 = tested on: NCI-H522
OVCAR-3 = tested on: OVCAR-3
RPMI-8226 = tested on: RPMI-8226
RXF 393 = tested on: RXF 393
RXF 631 = tested on: RXF 631
SF-268 = tested on: SF-268
SK-MEL-28 = tested on: SK-MEL-28
SK-MEL-2 = tested on: SK-MEL-2
SK-OV-3 = tested on: SK-OV-3
SNB-78 = tested on: SNB-78
SR = tested on: SR
U-251 = tested on: U-251
UO-31 = tested on: UO-31
A498 = tested on: A498
ACHN = tested on: ACHN
CAKI-1 = tested on: CAKI-1
COLO 205 = tested on: COLO 205
DLD-1 = tested on: DLD-1
EKVX = tested on: EKVX
HOP-62 = tested on: HOP-62
HOP-92 = tested on: HOP-92
HT-29 = tested on: HT-29
IGROV-1 = tested on: IGROV-1
KM-20L2 = tested on: KM-20L2
KM12 = tested on: KM12
LOX IMVI = tested on: LOX IMVI
NCI-H226 = tested on: NCI-H226
NCI-H23 = tested on: NCI-H23
OVCAR-4 = tested on: OVCAR-4
OVCAR-5 = tested on: OVCAR-5
OVCAR-8 = tested on: OVCAR-8
SF-295 = tested on: SF-295
SF-539 = tested on: SF-539
SK-MEL-5 = tested on: SK-MEL-5
SN12C = tested on: SN12C
SNB-19 = tested on: SNB-19
SNB-75 = tested on: SNB-75
SW-620 = tested on: SW-620
TK-10 = tested on: TK-10
UACC-257 = tested on: UACC-257
UACC-62 = tested on: UACC-62

Question: With `O=C(Nc1ccc(Cl)cc1Cl)C(=O)Nn1c(S)nc2ccccc2c1=O` as the molecule, how does the GI50 (786-0) read?
Answer: > 100 µM (inactive)

Question: And the GI50 (A549)?
Answer: > 100 µM (inactive)

Question: And the GI50 (CCRF-CEM)?
Answer: > 100 µM (inactive)

Question: And the GI50 (DMS-114)?
Answer: > 100 µM (inactive)

Question: What about the GI50 (DMS-273) of the same molecule?
Answer: > 100 µM (inactive)

Question: And the GI50 (HCC 2998)?
Answer: > 100 µM (inactive)

Question: What about the GI50 (HCT-116) of the same molecule?
Answer: > 100 µM (inactive)

Question: What about the GI50 (HCT-15) of the same molecule?
Answer: > 100 µM

Question: What about the GI50 (HL-60) of the same molecule?
Answer: > 100 µM (inactive)

Question: What about the GI50 (HOP-18) of the same molecule?
Answer: > 100 µM (inactive)

Question: What about the GI50 (K562) of the same molecule?
Answer: > 100 µM (inactive)

Question: And the GI50 (LXFL 529)?
Answer: > 100 µM (inactive)

Question: What about the GI50 (M14) of the same molecule?
Answer: > 100 µM (inactive)

Question: And the GI50 (M19-MEL)?
Answer: > 100 µM (inactive)

Question: What about the GI50 (MOLT-4) of the same molecule?
Answer: > 100 µM (inactive)

Question: And the GI50 (Malme-3M)?
Answer: > 100 µM (inactive)

Question: What about the GI50 (NCI-H460) of the same molecule?
Answer: > 100 µM (inactive)

Question: And the GI50 (NCI-H522)?
Answer: > 100 µM (inactive)

Question: And the GI50 (OVCAR-3)?
Answer: > 100 µM (inactive)

Question: What about the GI50 (RPMI-8226) of the same molecule?
Answer: > 100 µM (inactive)

Question: And the GI50 (RXF 393)?
Answer: > 100 µM (inactive)

Question: What about the GI50 (RXF 631) of the same molecule?
Answer: > 100 µM (inactive)

Question: And the GI50 (SF-268)?
Answer: > 100 µM (inactive)

Question: What about the GI50 (SK-MEL-28) of the same molecule?
Answer: > 100 µM (inactive)

Question: And the GI50 (SK-MEL-2)?
Answer: > 100 µM (inactive)

Question: And the GI50 (SK-OV-3)?
Answer: > 100 µM (inactive)

Question: What about the GI50 (SNB-78) of the same molecule?
Answer: > 100 µM (inactive)

Question: What about the GI50 (SR) of the same molecule?
Answer: > 100 µM (inactive)

Question: And the GI50 (U-251)?
Answer: > 100 µM (inactive)

Question: What about the GI50 (UO-31) of the same molecule?
Answer: > 100 µM (inactive)

Question: Which results are given for `Fc1ccc(C2SCc3nc4ccccc4n32)c(F)c1` (stereo unspecified)?
Answer: GI50 (786-0): > 100 µM (inactive); GI50 (A498): > 100 µM (inactive); GI50 (A549): 83.8 µM (inactive); GI50 (ACHN): 82.4 µM (inactive); GI50 (CAKI-1): > 100 µM (inactive); GI50 (CCRF-CEM): 51.6 µM (inactive); GI50 (COLO 205): > 100 µM (inactive); GI50 (DLD-1): 67.6 µM (inactive); GI50 (DMS-114): 31.8 µM (inactive); GI50 (DMS-273): 38 µM (inactive); GI50 (EKVX): > 100 µM (inactive); GI50 (HCC 2998): 98.6 µM (inactive); GI50 (HCT-116): 54 µM (inactive); GI50 (HCT-15): 49.4 µM; GI50 (HL-60): 22 µM (inactive); GI50 (HOP-18): > 100 µM (inactive); GI50 (HOP-62): > 100 µM (inactive); GI50 (HOP-92): 29.8 µM (inactive); GI50 (HT-29): 81.1 µM (inactive); GI50 (IGROV-1): > 100 µM (inactive); GI50 (K562): 34.9 µM (inactive); GI50 (KM-20L2): > 100 µM (inactive); GI50 (KM12): 46.3 µM (inactive); GI50 (LOX IMVI): 81.5 µM (inactive); GI50 (M14): 73.1 µM (inactive); GI50 (M19-MEL): 65.5 µM (inactive); GI50 (MOLT-4): 30.5 µM (inactive); GI50 (Malme-3M): 80.4 µM (inactive); GI50 (NCI-H226): > 100 µM (inactive); GI50 (NCI-H23): 46.3 µM (inactive); GI50 (NCI-H460): 54 µM (inactive); GI50 (NCI-H522): 30.1 µM (inactive); GI50 (OVCAR-3): 51.1 µM (inactive); GI50 (OVCAR-4): 95.7 µM (inactive); GI50 (OVCAR-5): 67.6 µM (inactive); GI50 (OVCAR-8): 79.3 µM (inactive); GI50 (RPMI-8226): 37.9 µM (inactive); GI50 (RXF 393): 98.4 µM (inactive); GI50 (RXF 631): 34.5 µM (inactive); GI50 (SF-268): > 100 µM (inactive); GI50 (SF-295): 39.4 µM (inactive); GI50 (SF-539): > 100 µM (inactive); GI50 (SK-MEL-2): 71.9 µM (inactive); GI50 (SK-MEL-5): 32.1 µM (inactive); GI50 (SK-OV-3): > 100 µM (inactive); GI50 (SN12C): > 100 µM (inactive); GI50 (SNB-19): > 100 µM (inactive); GI50 (SNB-75): > 100 µM (inactive); GI50 (SNB-78): 38.1 µM (inactive); GI50 (SR): 34.6 µM (inactive); GI50 (SW-620): > 100 µM (inactive); GI50 (TK-10): 32.5 µM (inactive); GI50 (U-251): 75.5 µM (inactive); GI50 (UACC-257): 34.4 µM (inactive); GI50 (UACC-62): 64.7 µM (inactive); GI50 (UO-31): 42.3 µM (inactive)
